Here are results for 1 compound from US20210228523A1, “MODULATORS OF SESTRIN-GATOR2 INTERACTION AND USES THEREOF” (Navitor Pharmaceuticals, Inc., priority 2017, published 2021).

Assay [1] concerns layer V pyramidal neurons in PFC. The assay is described as follows: Whole cell patch clamp recording of 5-HT- and Hcrt-induced EPSCs in brain slices after oral dosing. The note with it: Example H, NV-5138 160 mg/kg oral single dose. Format: in vivo, rat. On the procedure: (§1) Study Design: Sixteen (16) male rats weighing between 175 and 200 g were randomized into 2 study groups (n=8), following a 5-day acclimation period. On study day 0, rats received a single dose of either NV vehicle (Veh, 0.5% methylcellulose/0.1% Tween-80) or NV-5138 (160 mg/kg), by oral gavage. On day 1, 24 hrs after dosing, rats were sacrificed, and brain slices were prepared and subjected to whole cell patch clamp recording of layer V pyramidal neurons in PFC.
Preparation of Test Articles: NV-5138 (Navitor, Lot #07) was prepared by dissolving in Veh (0.5% methylcellulose/0.1% Tween-80) at a concentration of 50 mg/mL. The dosing volume based on the weight of the animal (3.2 mL/kg) was administered by oral gavage to study animals. Test articles were prepared the day of dosing.
Brain Slice Preparation: Brain slices were prepared according to published procedures (Liu, R. J. et al., J. Neurosci. 22(21): 9453-9464 (2002)). Briefly, rats were anesthetized with chloral hydrate (400 mg/kg, i.p.), in adherence to protocols approved by the Yale Animal Care and Use Committee. After decapitation, the brains were removed rapidly and placed in ice-cold (4° C.) artificial cerebrospinal fluid (ACSF) in which sucrose (252 mM) was substituted for NaCl (sucrose-ACSF) to prevent cell swelling. A block of tissue containing PFC was dissected and coronal slices (400 μm) were cut in sucrose-ACSF with an oscillating-blade tissue sheer (Leica VT1000S). After placement of the slice in a submerged recording chamber, the bath temperature was raised to 32° C. Known concentrations of drugs dissolved in ACSF, applied through a stopcock arrangement at a fast flow rate (4 mL/min), reached the slice within 7-10 s. […] A recovery period of ˜1-2 h was allowed before commencement of recording.
Electrophysiology Recording. […] Series resistance, monitored throughout the experiment, was usually between 4 and 8 MΩ. […]
On the technique in general: Patch clamp records ionic current or voltage across a cell membrane.

The test system is the same in assay [2]. The experiment in a line: Dendritic spine density and morphology analysis (two-photon imaging). Type of assay: in vivo, rat. Particulars: Example H; NV-5138 160 mg/kg oral single dose; 24 hr. Here is the method: as §1
Spine Density Analysis. Labeled neurons within layer V of anterior cingulate (Cg1) and prelimbic mPFC (Cg3) were imaged with a two-photon Ti:sapphire laser scanning system for analysis of spine density and morphology (810 nanometers; Mai Tai, Spectra Physics, Mountain View, Calif.) coupled to direct detection Radiance 2000 BioRad laser scanner (Zeiss Micromaging, Thornwood, N.Y.) mounted on a Olympus BX50WI microscope, using a 60× (0.9 numerical aperture) water-immersion objective. This includes the total number of spines on proximal and distal tufts of layer V neurons, as well as the spine head diameter, and indication of spine maturation. The length of apical tuft branch segments is determined within the 3D matrix of each Z-stack by using Neurolucida 10.2 (MicroBrightField). Spine density and spine head diameter analysis are done with the Autospine module of Neurolucida Explorer (version 10.2) on the raw image stacks (2-5 optical sections, 1 μm apart). Spine density and segmentation (beading) were sampled in three zones: tips of tuft branches as they approach the pial membrane, intermediate dendrites approximately midway between the pial membrane and bifurcation of apical trunk, and proximal tuft dendrites just distal to the bifurcation. Results were expressed in terms of total dendritic length, spine density, and segmentation density. Results were expressed in terms of spine density per 10 μm.

With `CC(C)(C[C@H](N)C(=O)O)C(F)F` [NV-5138], the “amplitude of 5-HT- and Hcrt-induced EPSCs (cumulative probability distribution)” value in assay [1] (FIG. 31, 24 hrs) is listed as “on frequency but not amplitude”. Also, in assay [1] (24 hrs after dosing), the “frequency of 5-HT-induced EPSCs relative to vehicle-treated rats” value is recorded as “significantly increased” and the “frequency of Hcrt-induced EPSCs relative to vehicle-treated rats” value was “significantly increased”. Moreover, in assay [2], the “mushroom spine subtype density” value is recorded as “specific increase”, the “overall spine density in layer V pyramidal neuron dendrites” value is on record as “significant increase” and the “thin spine subtype density” value is “specific increase”.
